Data from patent US9950071B2, “Hybrid anticancer prodrug simultaneously producing cinnamaldehyde and quinone methide and method for preparing same” (INDUSTRIAL COOPERATION FOUNDATION CHONBUK NATIONAL …, priority 2014, dated 2018).

Assays:
[1] = system: xenograft mouse model of DU145 and SW620; assay: growth and size of tumor in xenograft model; assay type: in vivo; settings: for growth inhibition effect of the tumor / size of the tumor: 2 mg/kg through tail vein every 3 days
Procedure: In order to verify in vivo anticancer activity of the QCA, a tumor in a xenograft model was observed. First, cancer cells were injected to a side hypodermic tissue of mouse by using a xenograft mouse model of DU145 and SW620 and when the tumor after cell transplantation started to be touched small, cinnamaldehyde, Q1, and cinnamaldehyde and Q1, or QCA was administrated by 2 mg/kg though tail vein every 3 days, and then the size of the tumor in the mouse was measured and the result thereof was illustrated in FIG. 17. Further, different amounts of QCA were administrated to the mouse having the tumor and in order to compare the effect thereof, 2 mg/kg of camptotethin (CPT) as an anticancer agent which was commercialized was administrated in other mouse, and then the size of the tumor of the mouse was measured and the result thereof was illustrated in FIG. 18.

[2] = system: DU145, SW620 and NIH3T3 cells; assay: cytotoxicity by MTT assay; assay type: cell-based; settings: 24 hr treatment, various amounts
Procedure: The cytotoxities of the QCA prepared in Example 1 and the QBCA prepared in Example 2 were measured by an MTT assay. In detail, a prostate cancer cell line DU145, a colorectal cancer cell line SW620, and a fibroblast cell NIH3T3 were inoculated in a 24-well plate with the density of 1×10^5 cells/well, respectively, and cultured for 24 hr to reach up to 90% confluency. The cells were treated with various amounts of QCA, QBCA, Q1, or cinnamaldehyde and cultured for 24 hr. 100 μL of the MTT solution was put each well and the cells were cultured for 4 hr. The generated formazan crystals were dissolved in 200 μL of dimethylsulfoxide. After 10 min of the culture, an absorbance at 570 nm was measured by using a micro plate reader (Biotek Instruments, Winooski, Vt.). A cell survival rate was determined by comparing absorbances of cells in a control group and QCA or QBCA-treated cells, and the results were illustrated in FIGS. 9 and 10.

[3] = system: procaspase-3 and PARP-1 in SW620 cells; assay: immunoblot analysis; assay type: cell-based; settings: SW620, 8 hr, various concentrations
Procedure: (§1) The prostate cancer cell line DU145 and the colorectal cancer cell line SW620 (1×10^6/well) were treated with cinnamaldehyde or QCA for 8 hr at various concentrations and washed with new PBS twice. Proteins were extracted from the cells by using a lysis buffer solution. Electrophoresis was performed by using […] of a cell lysate in a […] and the proteins were transferred to a PVDF membrane (Millipore, Billerica, Mass.). A blot was cultured together with a PARP monoclonal antibody (Santa Cruz Biotechnology, Dallas, Tex.) or caspase-3 (Santa Cruz Biotechnology, Dallas, Tex.) and a HRP-coupled anti-goat antibody (Millipore, Billerica, Mass.) was used as a secondary antibody. An immunoblot signal was verified by using a chemiluminescent reagent (Pierce, Rockford, Ill.) of SuperSignal Ultra and the result thereof was illustrated in FIGS. 11 and 12.

[4] = system: procaspase-3 and PARP-1 in DU145 cells; assay: immunoblot analysis; assay type: cell-based; settings: DU145, 8 hr, various concentrations
Procedure: as §1

[5] = QCA structure after hydrolysis in tumor environment (1H NMR); assay type: physicochemical
Procedure: In a tumor environment, in order to verify a structure of the QCA triggered by double stimulus, the QCA was cultured for 24 hr at pH 5.5 and verified through ^1H NMR and the structure of the QCA was illustrated in FIG. 5.

tumor lysate = tumor lysate analysis by LC-MS (generation of QM and cinnamaldehyde); assay type: in vivo, mouse
Procedure: In the tumor, in order to verify whether to generate the QM and the cinnamaldehyde in the tumor, a tumor lysate was analyzed by LC-MS after 22 days and the result thereof was illustrated in FIG. 19.

DU145 cells = assay: flow cytometry with Annexin V-FITC and propidium iodide; assay type: cell-based; settings: DU145, treated 24 hr, compared with cinnamaldehyde and Q1
Procedure: (§2) Further, in order to support the result of the DNA fragmentation assay, the DU145 and SW620 cells were cultured for 24 hr and treated with cinnamaldehyde, Q1 or QCA for 24 hr and then flow cytometry was performed by using Annexin V-FITC as a marker of apoptosis and propidium iodide (PI) as a marker for […], and the result was illustrated in FIGS. 15 and 16.

SW620 cells [6] = assay: as above; assay type: cell-based; settings: SW620, treated 24 hr, compared with cinnamaldehyde and Q1
Procedure: as §2

SW620 tumor mouse model = assay: histologic examination of tumor (H&E and TUNEL staining); assay type: in vivo; settings: 21 days, once per three days
Procedure: In order to verify the apoptosis induced by the QCA, in a SW620 tumor mouse model, H&E staining of the tumor was performed after administrating cinnamaldehyde, Q1, the cinnamaldehyde and the Q1, or QCA for 21 days once per three days, and the result thereof was illustrated in FIG. 20. Further, terminal deoxynucleotidyl transferase dUTP nick end labeling (TUNEL) staining of the tumor was performed by the same method, and the result thereof was illustrated in FIG. 21.

[7] = system: prostate cancer cell line DU145; assay: generation of reactive oxygen species by flow cytometry (DCFH-DA); assay type: cell-based; settings: DU145, treated 12 hr, compared with cinnamaldehyde
Procedure: The prostate cancer cell line DU145 (4×10^5) was inoculated in a 24-well culture plate and cultured for 24 hr, and treated with cinnamaldehyde or QCA for 12 hr. Cells were washed with a new medium twice and resuspended in a 1× binding buffer at a concentration of 1×10^5 cells/mL. 100 μL of the cell suspension was transferred to 5 mL of a culture tube and added with 5 μM of 2′,7′-dichlorofluorescein diacetate (DCFH-DA) and softly mixed. The cells were dark-cultured for 15 min at room temperature and added with 400 μL of the 1× binding buffer. The stained cells were measured by using a flow cytometry (FACS Caliber, Becton Dickinson, San Jose, Calif.) and the result was illustrated in FIG. 8. A total of 1.5×10^4 cells per sample were analyzed.

[8] = toxicity of QCA: ALT evaluation and H&E staining of liver and heart; assay type: in vivo; settings: 2 mg/kg, 10 days, once per 2 days
Procedure: In order to verify the stability of the QCA, after 2 mg/kg of the QCA was injected to the mouse for 10 days once per 2 days, alanine transaminase (ALT) evaluation and H&E staining of the liver and heart tissues were performed, and the result thereof was illustrated in FIGS. 24 and 25.

SW620 cells [9] = assay: DNA fragmentation assay (electrophoresis); assay type: cell-based
Procedure: In order to verify an effect of the QCA on the DNA fragments, a DNA fragmentation assay of SW620 was performed. First, the DU145 and SW620 cells were cultured for 24 hr and then treated with 100 μm of cinnamaldehyde, 100 μm of Q1 (4-(1,3,2-dioxaborinan-2-yl)benzyl carbonate, and generating only quinone methide), and 25 μm, 50 μm, 100 μm of the QCA to isolate the DNA and the fragmentation of the nucleosomal DNA was observed by electrophoresis, and the result thereof was illustrated in FIG. 13.
Further, hereinabove, the DNA fragments of the SW620 treated with 100 μm of the QCA were analyzed over time and the result thereof was illustrated in FIG. 14.

fibroblast cell NIH3T3 = assay: cell GSH level (Ellman's reagent); assay type: cell-based; settings: NIH3T3, 1.5 hr at 37° C., compared with untreated cells
Procedure: (§3) A prostate cancer cell line DU145, a colorectal cancer cell line SW620, and a fibroblast cell NIH3T3 were inoculated in a 6-well plate (5×10^5/well) to reach 80% confluency. The cell lines were treated with various compounds for 1.5 hr at 37° C. and then, cells were obtained and washed with PBS. Thereafter, the cells were lysed in ice in 40 μL of a Triton X-100 lysis buffer solution. After 20 min, the lysate was centrifuged with 9,000 g and 10 μL of a supernatant was mixed with 50 μL of an Ellman's reagent (0.5 mM DTNB). The amount of GSH was quantified by measuring an absorbance at 405 nm using a microplate reader (Biotek Instruments, Winooski, Vt.). In the treated cells, a percentage of the GSH content was compared with the base GSH content measured in untreated cells, and the result was illustrated in FIG. 7.

[10] = system: prostate cancer cell line DU145; assay: cell GSH level (Ellman's reagent); assay type: cell-based
Procedure: as §3

[11] = system: colorectal cancer cell line SW620; assay: cell GSH level (Ellman's reagent); assay type: cell-based
Procedure: as §3

liver and heart tissues = assay: organ damage, H&E and TUNEL staining of liver and heart tissues; assay type: in vivo, mouse; settings: 21 days, once per three days
[12] = in vivo; cited from earlier work

## 4-(1,3,2-dioxaborinan-2-yl)benzyl carbonate [Example Q1, reference compound]
[1]
  growth inhibition effect of the tumor / size of the tumor: slight

## CC1(COC(=O)OCc2ccc(B3OCCCO3)cc2)COC(/C=C/c2ccccc2OC(=O)c2ccccc2)OC1 (stereo not shown) [QBCA, 4-(1,3,2-dioxaborinan-2-yl)benzyl ((5-methyl-2-(2-benzoyloxyphenyl)vinyl-1,3-dioxan-5-yl)methyl)carbonate]
[2]
  cytotoxicity (cell survival rate, MTT): increased according to a concentration

## CC1(COC(=O)OCc2ccc(B3OCCCO3)cc2)COC(/C=C/c2ccccc2)OC1 (stereo not shown) [QCA, 4-(1,3,2-dioxaborinan-2-yl)benzyl ((5-methyl-2-styryl-1,3-dioxan-5-yl)methyl)carbonate]
[1]
  growth inhibition effect of the tumor / size of the tumor: significantly smaller size of the tumor
[1]; QCA 1 mg/kg or less
  anticancer activity (size of the tumor): a different anticancer activity was not shown
[1]; QCA 2 mg/kg, compared with 2 mg/kg CPT
  anticancer activity (size of the tumor): prominent anticancer activity
[3]
  expression of PARP-1: concentration-dependently reduced
  expression of procaspase-3: concentration-dependently reduced
[4]
  expression of PARP-1: concentration-dependently reduced
  expression of procaspase-3: concentration-dependently reduced
[5]; H2O2-mediated, peaks 6.9 and 6.4 ppm
  boronate oxidation and formation of hydroxybenzyl alcohol (1H NMR): formation of hydroxybenzyl alcohol and oxidation of H2O2-mediated boronate were verified
[5]; cultured 24 hr at pH 5.5, aldehyde peak 9.4 ppm
  release of cinnamaldehyde by acetal bond cleavage (1H NMR): cinnamaldehyde generated while an acetal bond was broken
Tumor lysate; liver, after 22 days
  QM and cinnamaldehyde in the liver: not detected
Tumor lysate; tumor lysate after 22 days
  GSH value in tumor lower than the tumor of the untreated mouse: up to 38%
Tumor lysate; tumor lysate after 22 days, new peak same as cinnamaldehyde treatment
  generation of cinnamaldehyde in the tumor: cinnamaldehyde was generated
DU145 cells
  apoptosis (Annexin V / PI): faster apoptosis than the cinnamaldehyde and Q1-treated cells
SW620 cells [6]
  apoptosis (Annexin V / PI): faster apoptosis than the cinnamaldehyde and Q1-treated cells
[2]
  cytotoxicity (cell survival rate, MTT): increased according to a concentration
SW620 tumor mouse model
  apoptosis in tumor tissue (H&E, TUNEL): apoptosis of no-nuclear cells was widely shown
[7]
  apoptosis / cell toxicity by ROS generation (FIG. 8): much higher cell toxicity than the cinnamaldehyde
[8]
  evidence of toxicity accumulated in the liver and the heart (H&E): not observed
  serum ALT level compared with the untreated mouse: a little difference
SW620 cells [9]; SW620, 100 μm QCA, over time
  amount of the DNA fragments over time: gradually increased in a concentration and time-dependent manner
SW620 cells [9]; SW620, QCA 25, 50, 100 μm vs 100 μm cinnamaldehyde and 100 μm Q1
  DNA fragments (nucleosomal DNA ladder): more DNA fragments than the cinnamaldehyde and the Q1
Fibroblast cell NIH3T3
  GSH level: no effect
[10]; DU145, 50 μM
  GSH level at 50 μM: Most of GSH was depleted
[10]; DU145, 100 μM
  further reduction of the GSH at 100 μM: not further observed
[10]; DU145, 1.5 hr at 37° C., compared with untreated cells
  GSH level: significantly reduced in a dose-dependent manner
[11]; SW620, 50 μM
  GSH level at 50 μM: Most of GSH was depleted
[11]; SW620, 100 μM
  further reduction of the GSH at 100 μM: not further observed
[11]; SW620, 1.5 hr at 37° C., compared with untreated cells
  GSH level: significantly reduced in a dose-dependent manner
Liver and heart tissues
  organ damage (liver and heart, H&E and TUNEL): did not induce a particular organ damage

## O=CC=Cc1ccccc1 [cinnamaldehyde]
[12]
  half-life: less than 1.5 hr
[1]
  growth inhibition effect of the tumor / size of the tumor: slight
[5]; 72 hr, neutral pH, without H2O2
  change after culture at neutral pH without H2O2: any change was not observed
